Source: US8309557B2, “Pyrimidin-4-ylpropanedinitrile derivatives, processes for their preparation and their use as herbicides and plant growth regulators” (Bayer Intellectual Property GmbH, priority 2009, dated 2012)

Assays:
Assay type in all cases: in vivo
[1] = tested on: Matricaria inodora; test: Herbicidal effect post-emergence, MATIN
Experimental: (§1) Seeds of mono- and dicotyledonous weed plants and crop plants are planted in wood-fiber pots in sandy loam, covered with earth and grown in a greenhouse under good growth conditions. 2 to 3 weeks after sowing, the test plants are treated in the single-leaf stage. The compounds according to the invention, formulated in the form of wettable powders (WP) or as emulsion concentrates (EC), are then sprayed onto the green plant parts as aqueous suspension or emulsion using an application rate of 600 to 800 l of water/ha (converted) with the addition of 0.2% by weight of wetting agent. After the test plants had been in the greenhouse for ca. 3 weeks under optimum growth conditions, the effect of the preparations is scored visually in comparison with untreated controls (herbicidal effect in percent (%): 100% effect=plants have died off, 0% effect=as control plants).

[2] = tested on: Veronica persica; test: Herbicidal effect post-emergence, VERPE
Experimental: as §1

[3] = tested on: Amaranthus retroflexus; test: Herbicidal effect post-emergence, AMARE
Experimental: as §1

[4] = tested on: Polygonum (Fallopia) convolvulus; test: Herbicidal effect post-emergence, POLCO
Experimental: as §1

[5] = tested on: Abutilon theophrasti; test: Herbicidal effect post-emergence, ABUTH
Experimental: as §1

[6] = tested on: Setaria viridis; test: Herbicidal effect post-emergence, SETVI
Experimental: as §1

[7] = tested on: Viola tricolor; test: Herbicidal effect post-emergence, VIOTR
Experimental: as §1

[8] = tested on: Echinochloa crus-galli; test: Herbicidal effect post-emergence, ECHCG
Experimental: as §1

[9] = tested on: Stellaria media; test: Herbicidal effect post-emergence, STEME
Experimental: as §1

[10] = tested on: Amaranthus retroflexus; test: Herbicidal effect pre-emergence, AMARE; details: 320 g/hectare, visual grading after 3 weeks vs untreated controls
From the text: (§2) Seeds of mono- and dicotyledonous weed plants and crop plants are planted in wood-fiber pots in sandy loam and covered with earth. The compounds according to the invention, formulated in the form of wettable powders (WP) or as emulsion concentrates (EC), are then applied to the surface of the covering earth as aqueous suspension or emulsion at an application rate corresponding to 320 g/hectare at an application rate of 600 to 800 l of water/ha (converted) with the addition of 0.2% wetting agent.
(§3) Following treatment, the pots are placed in a greenhouse and kept under good growth conditions for the test plants. The visual grading of the damage to the test plants is carried out after a test time of 3 weeks in comparison to untreated controls (herbicidal effect in percent (%): 100% effect=plants have died off, 0% effect=as control plants).

[11] = tested on: Veronica persica; test: Herbicidal effect pre-emergence, VERPE; details: 320 g/hectare, visual grading after 3 weeks vs untreated controls
From the text: as §2, §3

[12] = tested on: Viola tricolor; test: Herbicidal effect pre-emergence, VIOTR; details: 320 g/hectare, visual grading after 3 weeks vs untreated controls
From the text: as §2, §3

[13] = 0.32 kg and less of active substance per hectare, visual score after ca. 3 weeks vs untreated controls

Compound	Effect in % in respect of stated plant, MATIN [1] [%]	Effect in % in respect of stated plant, VERPE [2] [%]	Effect in % in respect of stated plant, AMARE [3] [%]	Effect in % in respect of stated plant, POLCO [4] [%]	Effect in % in respect of stated plant, ABUTH [5] [%]	Effect in % in respect of stated plant, SETVI [6] [%]	Effect in % in respect of stated plant, VIOTR [7] [%]	Effect in % in respect of stated plant, ECHCG [8] [%]	Effect in % in respect of stated plant, STEME [9] [%]	Effect in % in respect of stated plant, AMARE [10] [%]	Effect in % in respect of stated plant, VERPE [11] [%]	Effect in % in respect of stated plant, VIOTR [12] [%]	herbicidal effect [1, 13]	herbicidal effect [4, 13]	herbicidal effect [2, 13]
N.N#CC(C#N)c1nc(-c2ccc(F)cc2)nc(N)c1Cl [Compound 300]	80	80	80												
CN.N#CC(C#N)c1nc(-c2ccc(Cl)cc2)nc(N)c1Cl [Compound 309]	85	90	95	90	90	80	85	90	80	85	100	100			
N.N#CC(C#N)c1nc(-c2ccc(Cl)cc2)nc(N)c1Br [Compound 313]	90	100	100		80		80		90						
N.N#CC(C#N)c1nc(-c2ccc(Br)cc2)nc(N)c1Cl [Compound 321]	100	90	100	100	90	80	90	90	80	90	100	100			
N#C[C-](C#N)c1nc(-c2ccc(Cl)c(Cl)c2)nc(N)c1Cl.[Na+] [Compound 340]	90	90	90	90	80										
N.N#CC(C#N)c1nc(-c2ccc(Cl)cc2Cl)nc(N)c1Cl [Compound 375]	90	90	100	100	90					100	100	80			
N.N#CC(C#N)c1nc(-c2ccc(F)cc2F)nc(N)c1Cl [Compound 383]	90	90	90	100	80										
Cc1ccc(-c2nc(N)c(Cl)c(C(C#N)C#N)n2)cc1F.N [Compound 385]	80		100	80	80										
Cc1cc(-c2nc(N)c(Cl)c(C(C#N)C#N)n2)ccc1F.N [Compound 389]		80	80	80	80										
N.N#CC(C#N)c1nc(-c2cccc(Cl)c2Cl)nc(N)c1Cl [Compound 390]		80	90	80											
Cc1ccc(-c2nc(N)c(Cl)c(C(C#N)C#N)n2)c(F)c1.N [Compound 391]				80											
N.N#CC(C#N)c1nc(-c2ccc(Br)cc2F)nc(N)c1Cl [Compound 392]	100	90	100	90	90	80	90	80	90	80	100	100			
N#CC(C#N)c1nc(-c2ccccc2)nc(N)c1Cl [Ex. No. 1, [6-Amino-5-chloro-2-phenylpyrimidin-4-yl]propanedinitrile]													at least 80%	at least 80%	at least 80%
N#CC(C#N)c1nc(-c2ccc(Cl)cc2)nc(N)c1Cl [Ex. No. 29, [6-Amino-5-chloro-2-(4-chlorophenyl)pyrimidin-4-yl]propanedinitrile]		90			80		80				100	80			
N#CC(C#N)c1nc(-c2ccc(C(F)(F)F)cc2)nc(N)c1Cl [compound 45]	80	90		80		80	80								
N#CC(C#N)c1nc(-c2ccc(Cl)c(C(F)(F)F)c2)nc(N)c1Cl [compound 87]	90	90													
N#CC(C#N)c1nc(-c2ccc(Cl)c(Cl)c2)nc(N)c1Cl [compound 104]	90	90	90	80	80	80	80	80							
N#CC(C#N)c1nc(-c2ccc(Cl)cc2Cl)nc(N)c1Cl [compound 186]	90	90	100	100	100		80		90	90	100				
N#CC(C#N)c1nc(-c2ccc(F)cc2F)nc(N)c1Cl [compound 201]	80	90	90	90											
N#CC(C#N)c1nc(-c2cc(F)ccc2N)nc(N)c1Cl [compound 203]										100	90				
Cc1ccc(-c2nc(N)c(Cl)c(C(C#N)C#N)n2)cc1F [compound 204]	80	80	90	80	90			80							
Cc1cc(-c2nc(N)c(Cl)c(C(C#N)C#N)n2)ccc1F [compound 205]											100	100			
N#CC(C#N)c1nc(-c2cccc(Cl)c2Cl)nc(N)c1Cl [compound 207]	80	90	100	100	80				80						
N#CC(C#N)c1nc(-c2cc(F)c(Cl)c(F)c2)nc(N)c1Cl [compound 210]		80	90								80	100			
N#CC(C#N)c1nc(C2CCCCC2)nc(N)c1Cl [compound 240]	80	90			80										
